Assay results: ChEMBL document CHEMBL4130373, “Design, synthesis and biological evaluation of 4-anilinoquinoline derivatives as novel potent tubulin depolymerization agents” (Eur J Med Chem, 2017)
Activity calls are given as the source filed them. The calls are words filed in the database; no cut-off is given here.

What was measured:
[1] = system: MDA-MB-231; test: Antiproliferative activity against human MDA-MB-231 cells after 48 hrs by MTT assay; format: functional, cell-based; conditions: MDA-MB-231, 48 h
[2] = Solubility of the compound in physiological saline at 1 mg; format: physicochemical; conditions: buffer
[3] = system: HCT-8; test: Antiproliferative activity against human HCT8 cells after 48 hrs by MTT assay; format: functional, cell-based; conditions: HCT-8, 48 h
[4] = system: HCT-116; test: Antiproliferative activity against human HCT116 cells after 48 hrs by MTT assay; format: functional, cell-based; conditions: HCT-116, 48 h
[5] = system: A549; test: Antiproliferative activity against human A549 cells after 48 hrs by MTT assay; format: functional, cell-based; conditions: A549, 48 h
[6] = system: A2780S; test: Antiproliferative activity against human A2780S cells after 48 hrs by MTT assay; format: functional, cell-based
[7] = system: MCF7; test: Antiproliferative activity against human MCF7 cells after 48 hrs by MTT assay; format: functional, cell-based; conditions: MCF7, 48 h
[8] = system: L02; test: Antiproliferative activity against human LO2 cells after 48 hrs by MTT assay; format: cell-based; conditions: L02, 48 h
[9] = system: HEK293; test: Antiproliferative activity against HEK293 cells after 48 hrs by MTT assay; format: cell-based; conditions: Homo sapiens, HEK293, 48 h; read-out: IC50
[10] = Antiproliferative activity against human HCT8/T cells after 48 hrs by MTT assay; format: functional, cell-based; conditions: HCT-8, 48 h
[11] = Antiproliferative activity against human HCT8/V cells after 48 hrs by MTT assay; format: functional, cell-based; conditions: HCT-8, 48 h
[12] = system: NCI/ADR-RES; test: Antiproliferative activity against human MCF7/ADR cells after 48 hrs by MTT assay; format: functional, cell-based
[13] = system: A2780/Taxol; test: Antiproliferative activity against human A2780T cells after 48 hrs by MTT assay; format: functional, cell-based
[14] = Resistance index, ratio of IC50 for human HCT8/T cells to IC50 for human HCT8 cells; format: functional
[15] = Resistance index, ratio of IC50 for human HCT8/V cells to IC50 for human HCT8 cells; format: functional
[16] = Resistance index, ratio of IC50 for human MCF7/ADR cells to IC50 for human MCF7 cells; format: functional
[17] = Resistance index, ratio of IC50 for human A2780T cells to IC50 for human A2780S cells; format: functional
[18] = system: A2780S; test: Cell cycle arrest in human A2780S cells assessed as accumulation at G0/G1 phase at 3 nM after 24 hrs by propidium iodide staining based flow cytometry (reference value: 44.3%); format: functional
[19] = system: A2780S; test: Cell cycle arrest in human A2780S cells assessed as accumulation at S phase at 3 nM after 24 hrs by propidium iodide staining based flow cytometry (reference value: 40.36%); format: functional
[20] = system: A2780S; test: Cell cycle arrest in human A2780S cells assessed as accumulation at G2/M phase at 3 nM after 24 hrs by propidium iodide staining based flow cytometry (reference value: 15.34%); format: functional
[21] = system: A2780S; test: Cell cycle arrest in human A2780S cells assessed as accumulation at G0/G1 phase at 10 nM after 24 hrs by propidium iodide staining based flow cytometry (reference value: 44.3%); format: functional
[22] = system: A2780S; test: Cell cycle arrest in human A2780S cells assessed as accumulation at S phase at 10 nM after 24 hrs by propidium iodide staining based flow cytometry (reference value: 40.36%); format: functional
[23] = system: A2780S; test: Cell cycle arrest in human A2780S cells assessed as accumulation at G2/M phase at 10 nM after 24 hrs by propidium iodide staining based flow cytometry (reference value: 15.34%); format: functional
[24] = system: A2780S; test: Cell cycle arrest in human A2780S cells assessed as accumulation at G0/G1 phase at 30 nM after 24 hrs by propidium iodide staining based flow cytometry (reference value: 44.3%); format: functional
[25] = system: A2780S; test: Cell cycle arrest in human A2780S cells assessed as accumulation at S phase at 30 nM after 24 hrs by propidium iodide staining based flow cytometry (reference value: 40.36%); format: functional
[26] = system: A2780S; test: Cell cycle arrest in human A2780S cells assessed as accumulation at G2/M phase at 30 nM after 24 hrs by propidium iodide staining based flow cytometry (reference value: 15.34%); format: functional
[27] = system: A2780S; test: Cell cycle arrest in human A2780S cells assessed as accumulation at G2/M phase after 24 hrs by propidium iodide staining based flow cytometry; format: functional
[28] = system: A2780S; test: Induction of alpha-tubulin depolymerization in human A2780S cells at 5 to 50 nM after 24 hrs by DAPI staining based immunofluorescence microscopic method; format: cell-based
[29] = organism: Sus scrofa; test: Inhibition of porcine brain tubulin polymerization preincubated for 5 mins followed by GTP addition measured every 2 mins by spectrophotometric method
[30] = system: HepG2; test: Binding affinity to beta-tubulin colchicine binding site in human HepG2 cells assessed as reduction in EBI-beta-tubulin adduct formation preincubated for 2 hrs followed by EBI addition measured after 1.5 hrs by Western blot analysis; format: cell-based
[31] = system: HCT-116; test: Antitumor activity against human HCT116 cells xenografted in Balb/c athymic nude mouse assessed as tumor growth inhibition at 2.5 mg/kg administered once in every 2 days measured on day 18 post treatment relative to control; format: functional; conditions: read-out: TGI
[32] = system: Mus musculus; test: Toxicity in Balb/c athymic nude mouse xenografted with human HCT116 cells assessed as body weight loss at 2.5 mg/kg administered once in every 2 days relative to control; format: organism-based; conditions: in vivo, 48 h
[33] = system: Mus musculus; test: Toxicity in Balb/c athymic nude mouse xenografted with human HCT116 cells assessed as effect on feeding behaviour at 2.5 mg/kg administered once in every 2 days; format: organism-based; conditions: in vivo, 48 h
[34] = system: Mus musculus; test: Toxicity in Balb/c athymic nude mouse xenografted with human HCT116 cells assessed as abnormal behaviour at 2.5 mg/kg administered once in every 2 days; format: organism-based; conditions: in vivo, 48 h
[35] = system: HCT-116; test: Antitumor activity against human HCT116 cells xenografted in Balb/c athymic nude mouse assessed as tumor growth inhibition at 100 mg/kg, iv administered once in every 7 days measured on day 18 post treatment relative to control; format: functional; conditions: HCT-116, iv, read-out: TGI
[36] = system: Mus musculus; test: Toxicity in Balb/c athymic nude mouse xenografted with human HCT116 cells assessed as body weight loss at 100 mg/kg, iv administered once in every 7 days relative to control; format: organism-based; conditions: in vivo, 168 h
[37] = system: A2780S; test: Induction of alpha-tubulin depolymerization in human A2780S cells at 100 nM after 24 hrs by DAPI staining based immunofluorescence microscopic method; format: cell-based

CCC(=O)Nc1cc(N(C)c2cc(C)nc3ccccc23)ccc1OC
IC50 [1]: 18.5 nM
solubility [2]: Soluble

COc1ccc(N(C)c2cc(C)nc3ccccc23)cc1
IC50 [1]: 6.6 nM
solubility [2]: Insoluble

COc1ccc(N(C)c2cc(Cl)nc3ccccc23)cc1
IC50 [1]: > 500 nM
solubility [2]: Insoluble

COc1ccc(N(C)c2cc(C)nc3ccccc23)cc1NC(=O)CCCCl
IC50 [1]: 3.9 nM
solubility [2]: Soluble
IC50 [3]: 3.4 nM
IC50 [4]: 2.7 nM
IC50 [5]: 3.2 nM
IC50 [6]: 2.2 nM
IC50 [7]: 1.5 nM
IC50 [8]: 75.6 nM
IC50 [9]: 45.3 nM
IC50 [10]: 3.5 nM
IC50 [11]: 3.5 nM
IC50 [12]: 3.3 nM
IC50 [13]: 3.7 nM
Ratio IC50 [14]: 1
Ratio IC50 [15]: 1
Ratio IC50 [16]: 2.3
Ratio IC50 [17]: 1.7
Activity [18]: 27.95%
Activity [19]: 32.57%
Activity [20]: 39.48%
Activity [21]: 2.68%
Activity [22]: 22.69%
Activity [23]: 74.62%
Activity [24]: 2.3%
Activity [25]: 17.03%
Activity [26]: 80.67%
Activity [27]: Dose-dependent effect
Activity [28]: Active
inhibition [29]: Dose-dependent effect
Activity [30]: Dose-dependent effect
inhibition in vivo at 2.5 mg/kg [31]: 54.3%
Activity [32]: < 10%
Activity [33]: Non-Toxic
Activity [34]: Non-Toxic

COc1ccc(N(C)c2cc(C)nc3ccccc23)cc1NC(C)=O
IC50 [1]: 9.1 nM
solubility [2]: Soluble

COc1ccc(N(C)c2cc(C)nc3ccccc23)cc1NC(=O)CN1CCOCC1
IC50 [1]: 256 nM
solubility [2]: Insoluble

COc1ccc(N(C)c2cc(C)nc3ccccc23)cc1NC(=O)CCCl
IC50 [1]: 96.6 nM
solubility [2]: Soluble

C=CC(=O)Nc1cc(N(C)c2cc(C)nc3ccccc23)ccc1OC
IC50 [1]: 43.4 nM
solubility [2]: Soluble

CSc1ccc(N(C)c2cc(C)nc3ccccc23)cc1N
IC50 [1]: 9.5 nM
solubility [2]: Soluble

COc1ccc(N(C)c2cc(C)nc3ccccc23)cc1NC(=O)CNCCNc1ccccc1
IC50 [1]: 83.6 nM
solubility [2]: Insoluble

COc1ccc(N(C)c2cc(C)nc3ccccc23)cc1N
IC50 [1]: 3.2 nM
solubility [2]: Insoluble

O=c1[nH]cc(F)c(=O)[nH]1 [FLUOROURACIL]
inhibition in vivo at 100 mg/kg [35]: 60.8%
Activity [36]: < 10%

COc1ccc(N(C)c2cc(C)nc3ccccc23)cc1NC(=O)CN1CCSCC1
IC50 [1]: > 500 nM
solubility [2]: Soluble

CC(=O)O[C@H]1C(=O)[C@@]2(C)[C@H]([C@H](OC(=O)c3ccccc3)[C@]3(O)C[C@H](OC(=O)[C@H](O)[C@@H](NC(=O)c4ccccc4)c4ccccc4)C(C)=C1C3(C)C)[C@]1(OC(C)=O)CO[C@@H]1C[C@@H]2O [PACLITAXEL]
IC50 [3]: 17.4 nM
IC50 [6]: 12.3 nM
IC50 [10]: 9880 nM
IC50 [13]: 25100 nM
Ratio IC50 [14]: 567.4
Ratio IC50 [17]: 2042.3
Activity [37]: inactive

COC(=O)CCCC(=O)Nc1cc(N(C)c2cc(C)nc3ccccc23)ccc1OC
IC50 [1]: 186 nM
solubility [2]: Insoluble
